Measured values from ChEMBL document CHEMBL3045494, “Inhibitory effect and structureactivity relationship of some Biginelli-type pyrimidines against HSV-1” (Med Chem Res, 2013).
Active and inactive are the calls of the source. The rule behind the calls is not given here.

What was measured:
[1] = Selectivity index, ratio of CC25 for African green monkey Vero cells to IC25 for Herpes simplex virus 1 KOS; type: toxicity, cell-based; settings: read-out: Selectivity Index
[2] = Therapeutic index, ratio of CC50 for African green monkey Vero cells to IC50 for Herpes simplex virus 1 KOS; type: cell-based; settings: read-out: Ratio CC50/IC50
[3] = (§1) Cytotoxicity against Chlorocebus aethiops (African green monkey) Vero cells after 72 hr by XTT assay; type: cell-based; settings: chlorocebus sabaeus, Vero cells
Vero = assay: as §1; type: cell-based; settings: chlorocebus sabaeus, vero, 72 h
Human alphaherpesvirus 1 [4] = assay: Antiviral activity against Human herpesvirus 1 strain KOS infected Vero cells after 72 hr by plaque reduction assay; type: functional, organism-based
Human alphaherpesvirus 1 [5] = assay: Antiviral activity against Human herpesvirus 1 strain KOS infected Vero cells at 20 umol/L incubated at 4 hr post-infection measured after 68 hr by plaque reduction assay; type: functional, organism-based
Human alphaherpesvirus 1 [6] = assay: Antiviral activity against Human herpesvirus 1 strain KOS infected Vero cells at 20 umol/L incubated at 2 hr post-infection measured after 70 hr by plaque reduction assay; type: functional, organism-based
Human alphaherpesvirus 1 [7] = assay: Antiviral activity against Human herpesvirus 1 strain KOS infected Vero cells at 20 umol/L incubated for 2 hr prior to infection measured after 72 hr by plaque reduction assay; type: functional, organism-based
Human alphaherpesvirus 1 [8] = assay: Antiviral activity against Human herpesvirus 1 strain KOS infected Vero cells at 20 umol/L incubated for 4 hr prior to infection measured after 72 hr by plaque reduction assay; type: functional, organism-based
Human alphaherpesvirus 1 [9] = assay: Antiviral activity against Human herpesvirus 1 strain KOS infected Vero cells at 20 umol/L incubated immediately after infection for 72 hr by plaque reduction assay; type: functional, organism-based
[10] = Human alphaherpesvirus 1, KOS, Vero, 72 h
[11] = Human alphaherpesvirus 1, KOS, Vero, 72 h, read-out: IC50

IC50 (Human alphaherpesvirus 1 [4]; vero) | IC50 (Human alphaherpesvirus 1 [4]; [11]) | SMILES | selectivity ratio [1] | selectivity ratio [2] | CC50 at 72 h [3] | CC25 (Vero) | IC25 (Human alphaherpesvirus 1 [4]) | IC25 (Human alphaherpesvirus 1 [4]; [10]) | Activity (Human alphaherpesvirus 1 [5]) | Activity (Human alphaherpesvirus 1 [6]) | Activity (Human alphaherpesvirus 1 [7]) | Activity (Human alphaherpesvirus 1 [8]) | Activity (Human alphaherpesvirus 1 [9])
Not Active | – | CC1=C(C(=O)OC(C)(C)C)C(c2cccs2)NC(=O)N1 (stereo not drawn) | < 1 | < 1 | > 100 µM | 76.7 µM | inactive | – | – | – | – | – | –
Not Active | – | CC1=C(C(=O)Nc2ccccc2Cl)C(c2cnc(CS)n2Nc2ccccc2)NC(=O)N1 (stereo not drawn) | < 1 | < 1 | > 100 µM | 97.7 µM | inactive | – | – | – | – | – | –
– | 82.7 µM | COC(=O)C1=C(C)NC(=S)NC1c1ccc(Br)cc1 (stereo not drawn) | 0.8 | 1.22 | 97.2 µM | 69.1 µM | – | 67.7 µM | – | – | – | – | –
– | 1.8 µM | CC1=C(C(=O)OCC(C)C)C(c2cccs2)NC(S)=N1 (stereo not drawn) | 30.6 | 48.6 | 87.5 µM | 18.4 µM | – | 0.6 µM | – | – | – | – | –
– | 95.4 µM | CC1=C(C(=O)Nc2ccccc2Cl)C(c2cccc(Br)c2)NC(=O)N1 (stereo not drawn) | 34.1 | > 1 | > 100 µM | 54.7 µM | – | 1.6 µM | – | – | – | – | –
– | > 100 µM | CC1=C(C(=O)NC2CCCCC2)C(c2ccccc2)NC(=O)N1 (stereo not drawn) | 38 | > 1 | > 100 µM | 7.6 µM | – | 0.2 µM | – | – | – | – | –

The next lines start with the compound.

SMILES | IC50 (Human alphaherpesvirus 1 [4]; vero) | IC50 (Human alphaherpesvirus 1 [4]; [11]) | selectivity ratio [1] | selectivity ratio [2] | CC50 at 72 h [3] | CC25 (Vero) | IC25 (Human alphaherpesvirus 1 [4]) | IC25 (Human alphaherpesvirus 1 [4]; [10]) | Activity (Human alphaherpesvirus 1 [5]) | Activity (Human alphaherpesvirus 1 [6]) | Activity (Human alphaherpesvirus 1 [7]) | Activity (Human alphaherpesvirus 1 [8]) | Activity (Human alphaherpesvirus 1 [9])
CC1=C(C(=O)Nc2ccccc2Cl)C(c2cnc(CS)n2NCc2ccccc2)NC(=O)N1 (stereo not drawn) | Not Active | – | < 1 | < 1 | > 100 µM | > 100 µM | inactive | – | – | – | – | – | –
CC1=C(C(=O)Nc2ccccc2Cl)C(c2ccccc2Cl)NC(=S)N1 (stereo not drawn) | – | > 100 µM | 35 | > 1 | > 100 µM | 24.5 µM | – | 0.7 µM | – | – | – | – | –
COC(=O)C1=C(C)NC(=O)NC1c1ccc(Br)cc1 (stereo not drawn) | – | 0.9 µM | 123 | 111 | 100 µM | 12.3 µM | – | 0.1 µM | Active | Active | inactive | inactive | inactive
CC1=C(C(=O)Nc2cccc(Cl)c2)C(c2cnc(CS)n2Nc2ccccc2)NC(=O)N1 (stereo not drawn) | – | > 100 µM | 5.1 | < 0.9 | 98.6 µM | 71.1 µM | – | 13.7 µM | – | – | – | – | –
COc1ccc(C2NC(=O)NC(C)=C2C(=O)Nc2ccccc2Cl)cc1 (stereo not drawn) | – | 63.6 µM | 25.1 | > 1.5 | > 100 µM | 17.6 µM | – | 0.7 µM | – | – | – | – | –
CC1=C(C(=O)Nc2cccc(Cl)c2)C(c2cnc(CS)n2NCc2ccccc2)NC(=O)N1 (stereo not drawn) | – | 67 µM | 1.8 | > 1.4 | > 100 µM | 100 µM | – | 53.8 µM | – | – | – | – | –
CC1=C(C(=O)Nc2ccc(Cl)cc2)C(c2cccs2)NC(=O)N1 (stereo not drawn) | – | 59.7 µM | 7.1 | > 1.6 | > 100 µM | 83.2 µM | – | 11.7 µM | – | – | – | – | –
